In patent US20030157704A1, “Reagents and methods for identifying and modulating expression of genes regulated by CDK inhibitors” (priority 2001, published 2003):

How the values were obtained:
NK4 promoter = experiment: Luciferase assay in LuNK4p21 cell line (NK4 promoter-luciferase, IPTG-inducible p21); assay type: cell-based, human
Description: This assay was performed as follows. Cells were plated at a density of 40,000 cells/well in 12 well plates in 1 mL of media containing penicillin/streptomycin, glutamine and 10% fetal calf serum (FCS). After attachment, cells were treated with 50 μM IPTG or left untreated for different periods of time. Luciferase activity was then measured as described in Example 8 above. An additional aliquot was removed from the cell lysate to measure protein concentration using the Bio-Rad protein assay kit (Bradford assay). Luciferase activity for each sample was normalized to protein content and expressed as luciferase activity/μg protein.
Luciferase assays were performed substantially as described in Example 9. Luciferase activity was measured after 16 hrs of incubation with or without 50 μM IPTG, followed by an additional 20 hr treatment in the presence or in the absence of 20 mM sodium salicylate, 1 mM sulindac, or 10 mM aspirin. […] NSAID concentrations were based on the pharmacologic concentrations of these agents in the serum of patients required for their anti-inflammatory properties (Yin et al., 1998, ibid.).

p21-inducible genes = experiment: RT-PCR of endogenous p21-inducible genes in LuNK4p21 cells; assay type: cell-based, human
Description: To determine whether NFκB-inhibiting NSAID inhibited not only the induction of transcription from the NK4 promoter but also RNA expression of the endogenous p21-inducible genes, LuNK4p21 cells were plated at 125,000 cells per well in 6-well plates and were either untreated or treated with 50 μM IPTG for 48 hrs (the period of time required for maximal stimulation of p21-inducible genes; Chang et al., 2000, Proc. Natl. Acad. Sci. USA 97: 4291-4296), in the presence or in the absence of sulindac, at 250 μM, 500 μM or 1 mM concentrations. After this incubation, RNA was extracted from the cells using Qiagen RNeasy Mini Kit, and relative RNA levels of several p21-inducible genes were determined by reverse transcription-PCR (RT-PCR), essentially as described by Noonan et al. (1990, Proc. Natl. Acad. Sci. USA 87: 7160-7164), except that β-actin rather than β2-microglobulin was used for cDNA normalization. The PCR cycles were as follows: for the 1st cycle, 3 min for denaturation, 2 min for annealing and 2 min for extension, and the rest of cycles, 30 sec for denaturation; 30 sec for annealing; and 1 min for extension.

CDK6 = CDK6 (UniProt Q00534); experiment: cell-based or functional assay
CDK4 = CDK4 (UniProt P11802); experiment: cell-based or functional assay
[1] = 25 μM NSAID for 20 hr after 16 hrs with 50 μM IPTG

Sequence of CDK4 (P11802 2-303 limits assumed): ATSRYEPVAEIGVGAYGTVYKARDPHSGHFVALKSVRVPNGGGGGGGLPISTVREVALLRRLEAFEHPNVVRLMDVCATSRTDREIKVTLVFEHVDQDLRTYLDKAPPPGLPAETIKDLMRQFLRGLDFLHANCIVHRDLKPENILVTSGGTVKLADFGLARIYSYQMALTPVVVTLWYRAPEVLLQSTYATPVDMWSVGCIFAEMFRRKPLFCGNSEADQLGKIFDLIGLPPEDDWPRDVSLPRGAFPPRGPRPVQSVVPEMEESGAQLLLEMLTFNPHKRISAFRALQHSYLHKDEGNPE
Sequence of CDK6 (Q00534 whole entry): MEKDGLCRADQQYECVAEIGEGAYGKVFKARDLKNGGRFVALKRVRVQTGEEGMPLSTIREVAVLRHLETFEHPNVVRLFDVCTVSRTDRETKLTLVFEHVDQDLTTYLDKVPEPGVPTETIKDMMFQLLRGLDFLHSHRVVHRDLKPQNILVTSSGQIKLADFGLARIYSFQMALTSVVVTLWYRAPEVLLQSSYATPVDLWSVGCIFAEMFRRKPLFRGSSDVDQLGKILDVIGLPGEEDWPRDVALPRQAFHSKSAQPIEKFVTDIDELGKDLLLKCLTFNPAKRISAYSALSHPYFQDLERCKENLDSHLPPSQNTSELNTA

CC(=O)Oc1ccccc1C(=O)O [aspirin]
induction of luciferase expression by IPTG (NK4 promoter; 10 mM aspirin for 20 hr after 16 hrs with 50 μM IPTG): completely or almost completely abolished

CC(C)Cc1ccc(C(C)C(=O)O)cc1 (stereo not shown) [ibuprofen]
induction of luciferase expression by IPTG (NK4 promoter; [1]): no significant difference

COc1ccc2c(c1)c(CC(=O)O)c(C)n2C(=O)c1ccc(Cl)cc1 [indomethacin]
induction of luciferase expression by IPTG (NK4 promoter; [1]): no significant difference

O=C([O-])c1ccccc1O.[Na+] [sodium salicylate]
induction of luciferase expression by IPTG (NK4 promoter; 20 mM sodium salicylate for 20 hr after 16 hrs with 50 μM IPTG): completely or almost completely abolished

CC1=C(CC(=O)O)c2cc(F)ccc2/C1=C\c1ccc([S+](C)[O-])cc1 (stereo not shown) [sulindac]
induction of luciferase expression by IPTG (NK4 promoter; 1 mM sulindac for 20 hr after 16 hrs with 50 μM IPTG): completely or almost completely abolished
effects of IPTG on APP gene RNA (p21-inducible genes; 250 and 500 μM sulindac): diminished
NK4 gene expression (RNA) (p21-inducible genes; absence of IPTG, sulindac 250 μM, 500 μM or 1 mM, 48 hrs): very little effect
gene expression of all the other tested genes (p21-inducible genes; absence of IPTG, sulindac 250 μM-1 mM): dose-dependent increase
t-TGase RNA (p21-inducible genes; compared with NK4, with and without IPTG, sulindac 250 μM-1 mM): Very similar results
p21-induced transcription of most of the tested genes (p21-inducible genes; moderate dose of sulindac (250 μM)): inhibits the ability of p21 to induce transcription
effects of IPTG on CTGF gene RNA (p21-inducible genes; only by 250 μM sulindac): diminished
effects of IPTG on Mac2-binding protein (Mac2-BP) gene RNA (p21-inducible genes; only by 250 μM sulindac): diminished
effects of IPTG on p66Shc gene RNA (p21-inducible genes; only by 250 μM sulindac): diminished
NK4 RNA levels (p21-inducible genes; presence of 50 μM IPTG, all concentrations of sulindac (250 μM, 500 μM, 1 mM), 48 hrs): dose-dependent decrease
gene expression of all the other tested genes (p21-inducible genes; presence of IPTG, highest dose of sulindac (1 mM)): did not decrease gene expression
IPTG-induced RNA levels of prosaposin (p21-inducible genes; sulindac 250 μM, 500 μM, 1 mM): None of the tested sulindac concentrations produced a significant decrease
IPTG-induced RNA levels of superoxide dismutase 2 (SOD2) (p21-inducible genes; sulindac 250 μM, 500 μM, 1 mM): None of the tested sulindac concentrations produced a significant decrease

p16^Ink4A (from UniProt P42771 1-156)
cells arrested in G1 after 24 hrs of IPTG treatment (FACS analysis of DNA content) (CDK6): 93%
cells arrested in G1 after 24 hrs of IPTG treatment (FACS analysis of DNA content) (CDK4): 93%
